# Values quoted from earlier work as cited in patent US9182414B2, “Methods for identifying a GLP-1 secretagogue” (Arena Pharmaceuticals, Inc., priority 2005, dated 2015).
# Square brackets hold non-standard residues; d marks the D form. Peptide text beside a SMILES is read from it. * marks the point of attachment. NHPhenethyl = c1ccc(CCN*)cc1; Nphe = O=C(O)CNCc1ccccc1; PhAc = O=C(Cc1ccccc1)*; βAla = NCCC(=O)O
# Target: T1, BRS-3 (Homo sapiens, UniProt P32247)
# T1 sequence (P32247 1-399): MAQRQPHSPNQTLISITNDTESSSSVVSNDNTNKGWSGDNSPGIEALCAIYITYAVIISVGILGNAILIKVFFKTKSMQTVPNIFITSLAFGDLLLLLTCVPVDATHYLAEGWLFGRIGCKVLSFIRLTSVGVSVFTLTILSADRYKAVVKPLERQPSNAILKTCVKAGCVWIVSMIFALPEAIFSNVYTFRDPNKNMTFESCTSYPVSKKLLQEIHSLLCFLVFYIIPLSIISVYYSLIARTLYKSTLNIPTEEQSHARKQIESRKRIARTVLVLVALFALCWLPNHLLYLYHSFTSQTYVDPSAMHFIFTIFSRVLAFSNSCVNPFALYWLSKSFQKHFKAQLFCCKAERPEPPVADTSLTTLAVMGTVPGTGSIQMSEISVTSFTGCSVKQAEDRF
# Details: BRS-3 over GRP-R and NMB-R; description taken from literature
row,Compound,selectivity as BRS-3 agonist
1,"NC(=O)CC[C@H](NC(=O)CCc1ccc(Cl)cc1)C(=O)N[C@H](Cc1c[nH]c2ccccc12)C(=O)NCCc1ccccc1 [Compound 1, N1-{(1R)-2-(1H-3-Indolyl)-1-[1-(2-phenylethyl)carbamoyl]ethyl}-(2S)-2-[1-(2-(4-chlorophenyl)ethyl)carboxamido]pentanediamide]",selective BRS-3 agonists
2,"NC(=O)CC[C@H](NC(=O)Cc1cc2ccccc2[nH]1)C(=O)N[C@H](Cc1c[nH]c2ccccc12)C(=O)NCCc1ccccc1 [Compound 2, N1-{(1R)-2-(1H-3-Indolyl)-1-[1-(2-phenylethyl)carbamoyl]ethyl}-(2S)-2-[(1H-2-indolylmethyl)carboxamido]pentanediamide]",selective BRS-3 agonists
3,"C[C@H](NC(=O)Cc1ccccc1)C(=O)N[C@H](Cc1c[nH]c2ccccc12)C(=O)NCCc1ccccc1 [Compound 3, N1-(2-Phenylethyl)-(2R)-2-{[(1S)-1-(benzylcarboxamido)ethyl]carboxamido}-3-(1H-3-indolyl)propanamide] (PhAc-Ala-[dW]-NHPhenethyl)",selective BRS-3 agonists
4,"C[C@H](NC(=O)Cc1ccc(Cl)cc1)C(=O)N[C@H](Cc1c[nH]c2ccccc12)C(=O)NCCc1ccccc1 [Compound 4, N1-(2-Phenylethyl)-(2R)-2-{[(1S)-1-((4-chlorobenzyl)-carboxamido)ethyl]carboxamido}-3-(1H-3-indolyl)propanamide]",selective BRS-3 agonists
5,"C[C@H](NC(=O)Cc1ccc2c(c1)OCO2)C(=O)N[C@H](Cc1c[nH]c2ccccc12)C(=O)NCCc1ccccc1 [Compound 5, N1-(2-Phenylethyl)-(2R)-2-{[(1S)-1-((1,3-benzodioxol-5-ylmethyl)carboxamido)ethyl]carboxamido}-3-(1H-3-indolyl)propanamide]",selective BRS-3 agonists
6,"C[C@H](NC(=O)Cc1cccnc1)C(=O)N[C@H](Cc1c[nH]c2ccccc12)C(=O)NCCc1ccccc1 [Compound 6, N1-(2-Phenylethyl)-(2R)-2-{[(1S)-1-((3-pyridyl)methylcarboxamido)ethyl]carboxamido}-3-(1H-3-indolyl)propanamide]",selective BRS-3 agonists
7,"C[C@H](NC(=O)CC1NCCc2ccccc21)C(=O)N[C@H](Cc1c[nH]c2ccccc12)C(=O)NCCc1ccccc1 (stereo partly drawn) [Compound 7, N1-(2-Phenylethyl)-(2R)-2-{[(1S)-1-((1,2,3,4-tetrahydro-1-isoquinolinyl)methylcarboxamido)ethyl]carboxamido}-3-(1H-3-indolyl)propanamide]",selective BRS-3 agonists
8,"C[C@H](NC(=O)Cc1cc2ccccc2[nH]1)C(=O)N[C@H](Cc1c[nH]c2ccccc12)C(=O)NCCc1ccccc1 [Compound 8, N1-(2-Phenylethyl)-(2R)-2-{[(1S)-1-((1H2-indolyl)methylcarboxamido)ethyl]carboxamido}-3-(1H-3-indolyl)propanamide]",selective BRS-3 agonists
9,"O=C(CNCc1ccccc1)N[C@H](Cc1c[nH]c2ccccc12)C(=O)NCCc1ccccc1 [Compound 9, N1-(2-Phenylethyl)-(2R)-2-{[(benzyl)amino]methylcarboxamido}-3-(1H-3-indolyl)propanamide] (H-[Nphe]-[dW]-NHPhenethyl)",selective BRS-3 agonists
10,"O=C(CNCc1ccc(Cl)cc1)N[C@H](Cc1c[nH]c2ccccc12)C(=O)NCCc1ccccc1 [Compound 10, N1-(2-Phenylethyl)-(2R)-2-{[(4-chlorobenzyl)amino]-methylcarboxamido}-3-(1H-3-indolyl)propanamide]",selective BRS-3 agonists
11,"O=C(CNCc1cccnc1)N[C@H](Cc1c[nH]c2ccccc12)C(=O)NCCc1ccccc1 [Compound 11, N1-(2-Phenylethyl)-(2R)-2-{[(3-pyridyl)methylamino]-methylcarboxamido}-3-(1H-3-indolyl)propanamide]",selective BRS-3 agonists
12,"O=C(CNCCc1ccccc1)N[C@H](Cc1c[nH]c2ccccc12)C(=O)NCCc1ccccc1 [Compound 12, N1-(2-Phenylethyl)-(2R)-2-{[1-(2-phenylethyl)amino]-methylcarboxamido}-3-(1H-3-indolyl)propanamide]",selective BRS-3 agonists
13,CC(NCc1ccccc1)C(=O)N[C@H](Cc1c[nH]c2ccccc12)C(=O)NCCc1ccccc1 (stereo partly shown) [Compound 13],selective BRS-3 agonists
14,"CC(NCc1ccc(Cl)cc1)C(=O)N[C@H](Cc1c[nH]c2ccccc12)C(=O)NCCc1ccccc1 (stereo partly drawn) [Compound 14, N1-(2-Phenylethyl)-(2R)-2-{[1-((4-chlorobenzyl)amino)ethyl]carboxamido}-3-(1H-3-indolyl)propanamide]",selective BRS-3 agonists
15,"CC(NCCc1ccccc1)C(=O)N[C@H](Cc1c[nH]c2ccccc12)C(=O)NCCc1ccccc1 (stereo partly drawn) [Compound 15, N1-(2-Phenylethyl)-(2R)-2-{[1-(1-(2-phenylethyl)amino)ethyl]carboxamido}-3-(1H-3-indolyl)propanamide]",selective BRS-3 agonists
16,"O=C(NNC(=O)c1ccccc1)N[C@H](Cc1c[nH]c2ccccc12)C(=O)NCCc1ccccc1 [Compound 16, N1-(2-Phenylethyl)-(2R)-2-{{N′-(benzoyl)hydrazino]carboxamido}-3-(1H-3-indolyl)propanamide]",selective BRS-3 agonists

row,Compound,selectivity as BRS-3 agonist
1,"O=C(NNC(=O)c1ccc(Cl)cc1)N[C@H](Cc1c[nH]c2ccccc12)C(=O)NCCc1ccccc1 [Compound 17, N1-(2-Phenylethyl)-(2R)-2-{{N′-(4-chlorobenzoyl)-hydrazino]carboxamido}-3-(1H-3-indolyl)propanamide]",selective BRS-3 agonists
2,"O=C(Cc1cccnc1)NNC(=O)N[C@H](Cc1c[nH]c2ccccc12)C(=O)NCCc1ccccc1 [Compound 18, N1-(2-Phenylethyl)-(2R)-2-{[N′-(2-(3-pyridyl)ethanoyl)hydrazino]carboxamido}-3-(1H-3-indolyl)propanamide]",selective BRS-3 agonists
3,"O=C(CC1NCCc2ccccc21)NNC(=O)N[C@H](Cc1c[nH]c2ccccc12)C(=O)NCCc1ccccc1 (stereo partly drawn) [Compound 19, N1-(2-Phenylethyl)-(2R)-2-{{N′-(2-(1,2,3,4-tetrahydro-1-isoquinolinyl)ethanoyl)hydrazino]carboxamido}-3-(1H-3-indolyl)propanamide]",selective BRS-3 agonists
4,"O=C(Cc1cc2ccccc2[nH]1)NNC(=O)N[C@H](Cc1c[nH]c2ccccc12)C(=O)NCCc1ccccc1 [Compound 20, N1-(2-Phenylethyl)-(2R)-2-{[N′-(2-(1H-2-indolyl)ethanoyl)hydrazino]carboxamido}-3-(1H-3-indolyl)propanamide]",selective BRS-3 agonists
5,"O=C(NN=Cc1ccccc1)N[C@H](Cc1c[nH]c2ccccc12)C(=O)NCCc1ccccc1 [Compound 21, N1-(2-Phenylethyl)-(2R)-2-{[N′-(phenylmethylene)-hydrazino]carboxamido}-3-(1H-3-indolyl)propanamide]",selective BRS-3 agonists
6,"O=C(NN=Cc1ccco1)N[C@H](Cc1c[nH]c2ccccc12)C(=O)NCCc1ccccc1 [Compound 22, N1-(2-Phenylethyl)-(2R)-2-{[N′-(furan-2-ylmethylene)hydrazino]carboxamido}-3-(1H-3-indolyl)propanamide]",selective BRS-3 agonists
7,"O=C(NNCc1ccccc1)N[C@H](Cc1c[nH]c2ccccc12)C(=O)NCCc1ccccc1 [Compound 23, N1-(2-Phenylethyl)-(2R)-2-{[N′-(benzyl)hydrazino]carboxamido}-3-(1H-3-indolyl)propanamide]",selective BRS-3 agonists
8,"O=C(NNCc1ccc(Cl)cc1)N[C@H](Cc1c[nH]c2ccccc12)C(=O)NCCc1ccccc1 [Compound 24, N1-(2-Phenylethyl)-(2R)-2-{[N′-(4-chlorobenzyl)hydrazino]carboxamido}-3-(1H-3-indolyl)propanamide]",selective BRS-3 agonists
9,"O=C(NNCc1ccco1)N[C@H](Cc1c[nH]c2ccccc12)C(=O)NCCc1ccccc1 [Compound 25, N1-(2-Phenylethyl)-(2R)-2-{[N′-(2-furylmethyl)hydrazino]carboxamido}-3-(1H-3-indolyl)propanamide]",selective BRS-3 agonists
10,O=C(CN1CCN(Cc2ccccc2)CC1)N[C@H](Cc1c[nH]c2ccccc12)C(=O)NCCc1ccccc1 [Compound 26],selective BRS-3 agonists
11,"O=C(CN1CCC(Cc2ccccc2)CC1)N[C@H](Cc1c[nH]c2ccccc12)C(=O)NCCc1ccccc1 [Compound 27, N1-(2-Phenylethyl)-(2R)-2-{[(4-benzylpiperidino)methyl]carboxamido}-3-(1H-3-indolyl)propanamide]",selective BRS-3 agonists
12,Ac-FWAV[βAla]HRW-NH2 [Compound 33],selective BRS-3 agonists
13,Ac-Phe-Trp-Ala-His(τBzl)-Nip-Gly-Arg-NH2 [Compound 31],selective BRS-3 agonists
14,Ac-Phe-Trp-Ala-His(τBzl)-βAla-His-Arg-NH2 [Compound 32],selective BRS-3 agonists
15,"[D-Tyr^6,βAla^11,Phe^13,Nle^14]Bombesin(6-14) [Compound 34]",non-selective for BRS-3 over GRP-R and NMB-R
